Values of other authors as cited in US20100056493A1, “MODIFIED RELEASE PHARMACEUTICAL COMPOSITION AND A PROCESS OF MAKING THE SAME” (priority 2007, published 2010).

Key:
[1] = given in brackets after the drug name; no method stated
[2] = test system: de novo kidney allograft recipients; conditions: P=NS
[3] = 720 mg mycophenolic acid as mycophenolate sodium twice daily or 1000 mg MMF twice daily

SMILES | pH [1] | frequency of dosage reductions, discontinuation, or temporary interruptions of therapy secondary to GI toxicities [2, 3] | incidence of GI adverse events [2, 3] | overall incidence of efficacy failure (biopsy-proven acute rejection, graft loss, death, or loss to follow-up) ([2]; at 6 months, 720 mg mycophenolic acid as mycophenolate sodium twice daily (n=213) or 1000 mg MMF twice daily (n=210)) | BPAR rates ([2]; at 12 months, 720 mg mycophenolic acid as mycophenolate sodium twice daily or 1000 mg MMF twice daily)
COc1c(C)c2c(c(O)c1C/C=C(\C)CCC(=O)OCCN1CCOCC1)C(=O)OC2 [MMF, mycophenolate mofetil] | 7.2 | 17.6% | 78.1% | 28.1% | 24.3%
O=C(O)/C=C/C(=O)O.OCCOCCN1CCN(C2=Nc3ccccc3Sc3ccccc32)CC1 [Quetiapine fumarate, 2-[2-(4-dibenzo[b,f][1,4]thiazepin-11-yl-1-piperazinyl)ethoxy]-ethanol fumarate] | 5.4 | – | – | – | –
COc1c(C)c2c(c(O)c1C/C=C(\C)CCC(=O)O)C(=O)OC2 [mycophenolate sodium] | – | 13.1% | 78.4% | – | –
